From patent publication US11001590B2, “Pyrazolopyrimidine derivatives” (BAYER ANIMAL HEALTH GMBH, priority 2016, dated 2021) come the findings set out here.

For one series, the target named is C. elegans Slo-1a (Caenorhabditis elegans, UniProt Q95V25). The experiment in a line: In vitro assay 1: C. elegans Slo-1a, action at a recombinant C. elegans CHO cell line (membrane potential measurement).
Sequence of C. elegans Slo-1a (Q95V25 whole entry): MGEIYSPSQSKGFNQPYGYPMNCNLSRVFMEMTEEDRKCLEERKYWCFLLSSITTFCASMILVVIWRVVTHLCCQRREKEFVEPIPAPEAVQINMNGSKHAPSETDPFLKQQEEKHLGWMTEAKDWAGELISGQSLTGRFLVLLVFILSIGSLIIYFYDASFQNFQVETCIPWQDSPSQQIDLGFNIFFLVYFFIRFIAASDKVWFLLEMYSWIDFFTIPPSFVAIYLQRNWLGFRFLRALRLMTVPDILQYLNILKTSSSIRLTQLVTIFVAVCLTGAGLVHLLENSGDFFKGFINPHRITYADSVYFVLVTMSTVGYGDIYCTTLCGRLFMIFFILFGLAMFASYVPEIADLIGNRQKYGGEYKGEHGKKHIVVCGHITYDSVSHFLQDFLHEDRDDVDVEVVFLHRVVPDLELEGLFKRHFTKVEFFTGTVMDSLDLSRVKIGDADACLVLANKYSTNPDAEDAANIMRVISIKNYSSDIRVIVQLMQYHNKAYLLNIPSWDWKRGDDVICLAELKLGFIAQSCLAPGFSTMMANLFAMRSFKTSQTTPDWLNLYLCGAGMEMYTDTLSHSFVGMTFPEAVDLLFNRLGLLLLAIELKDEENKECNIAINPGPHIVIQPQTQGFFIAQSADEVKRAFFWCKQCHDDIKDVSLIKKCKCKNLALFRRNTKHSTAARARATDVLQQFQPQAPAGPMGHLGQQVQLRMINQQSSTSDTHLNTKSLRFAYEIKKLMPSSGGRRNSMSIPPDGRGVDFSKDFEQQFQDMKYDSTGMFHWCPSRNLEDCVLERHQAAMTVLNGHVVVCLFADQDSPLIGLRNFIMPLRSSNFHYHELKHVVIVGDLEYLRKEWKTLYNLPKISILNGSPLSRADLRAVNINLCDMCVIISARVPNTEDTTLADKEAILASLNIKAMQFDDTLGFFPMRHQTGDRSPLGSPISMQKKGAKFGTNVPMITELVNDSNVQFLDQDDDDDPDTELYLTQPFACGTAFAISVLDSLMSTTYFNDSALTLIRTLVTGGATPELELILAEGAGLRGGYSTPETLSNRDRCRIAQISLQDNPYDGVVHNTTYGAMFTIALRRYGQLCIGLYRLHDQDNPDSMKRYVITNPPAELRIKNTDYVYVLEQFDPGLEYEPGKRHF
Settings: not given
In general, EC50 refers to the midpoint of the concentration-response curve. In the case of `Cc1nn2c(C3CC3)c(C(=O)N[C@H]3CCOc4ccccc43)cnc2c1-c1cccc(OC(F)(F)F)c1` [Example 462], the EC50 was 6.31 nM.
Turning to `CC(C)c1c(C(=O)N[C@H]2CCc3ccccc32)cnc2c(-c3cccc(OC(F)(F)F)c3)c(C(F)F)nn12` [Example 431], the EC50 is 6.31 nM.
The same measure, in the same setting: the figure for `Cc1nn2c(C3CC3)c(C(=O)N[C@H]3CCOc4ccccc43)cnc2c1-c1cc(F)cc(F)c1` [Example 537] is 5.01 nM.
In the case of `Cc1nn2c(C(C)C)c(C(=O)N[C@H]3CCCc4ccccc43)cnc2c1-c1ccccc1` [Example 175], the EC50 is 63.1 nM.
Consider `Cc1nn2c(C(C)C)c(C(=O)N[C@H]3CCOc4ccccc43)cnc2c1-c1cccc2c1OCO2` [Example 266], for which the EC50 was 2 nM.
With `Cc1nn2c(C(C)C)c(C(=O)N[C@H]3CCc4ccccc43)cnc2c1-c1ccccc1` [Example 174], the concentration for a half-maximal effect (EC50) was 15.8 nM.
In the case of `Cc1nn2c(C(C)C)c(C(=O)N[C@H]3CCOc4ccccc43)cnc2c1-c1cccc(OC(F)(F)F)c1` [Example 394], the EC50 was 15.8 nM.
Still for that read-out and setting: the value for `CCN(C)c1cccc(-c2c(C)nn3c(C(C)C)c(C(=O)N[C@H]4CCc5ccccc54)cnc23)c1` [Example 373] was 39.8 nM; that for `Cc1ccccc1-c1c(C)nn2c(N3CCOCC3)c(C(=O)N[C@H]3CCOc4ccccc43)cnc12` [Example 536] was 5.01 nM.
On to `Cc1nn2c(C(C)C)c(C(=O)N[C@H]3CCc4ccccc43)cnc2c1-c1ccnc(Cl)c1` [Example 313], for which the EC50 is 158 nM.
With `Cc1nn2c(C3CC3)c(C(=O)N[C@H]3CCOc4ccccc43)cnc2c1-c1cccc(C(F)(F)F)c1` [Example 449], the EC50 was 6.31 nM.
As for `Cc1nn2c(Cc3ccc(F)cc3)c(C(=O)N[C@H]3CCOc4ccccc43)cnc2c1-c1c(F)cccc1Cl` [Example 228], the EC50 was 3160 nM.
As to `CC(C)c1c(C(=O)N[C@H]2CCCc3ccccc32)cnc2c(-c3ccccc3Cl)c(Cl)nn12` [Example 78], the EC50 was 31.6 nM.
As to `Cc1nn2c(C(C)C)c(C(=O)N[C@H]3CCCc4ccccc43)cnc2c1-c1cccc(OC(F)(F)F)c1` [Example 345], the EC50 was 12.6 nM.
Consider `CC(C)c1c(C(=O)N[C@H]2CCOc3ccccc32)cnc2c(-c3cc(Cl)cc(C(F)(F)F)c3)c(C(F)(F)F)nn12` [Example 143], for which the EC50 was 12.6 nM.
With `Cc1nn2c(C3CC3)c(C(=O)N[C@H]3CCc4ccccc43)cnc2c1-c1cccc(C(F)(F)F)c1` [Example 304], the EC50 was 20 nM.
Turning to `Cc1nn2c(C(C)C)c(C(=O)N[C@H]3CCCc4ccccc43)cnc2c1-c1cc(F)ccc1F` [Example 115], the EC50 was 15.8 nM.
In the case of `Cc1nn2c(C(C)C)c(C(=O)N[C@H]3CCc4ccccc43)cnc2c1-c1cccc(COC(C)C)c1` [Example 369], the EC50 was 20 nM.
For `COCc1cccc(-c2c(C(F)F)nn3c(C(C)C)c(C(=O)N[C@H]4CCc5ccccc54)cnc23)c1` [Example 430], the EC50 was 15.8 nM.
As for `COc1cccc(-c2c(C)nn3c(C(C)C)c(C(=O)N[C@H]4CCCc5ccccc54)cnc23)c1` [Example 346], the EC50 was 12.6 nM.
For the compound `Cc1nn2c(C(C)C)c(C(=O)N[C@H]3CCc4ccccc43)cnc2c1-c1cccc(Br)c1` [Example 205], the EC50 was 25.1 nM.

A further series deals with Dirofilaria immitis microfilariae. Briefly: In vitro assay 3: Dirofilaria immitis microfilariae (DIROIM L1), motility. The following applies: 72 h, reduction of motility vs negative control, 72 h incubation.
The compound `Cc1nn2c(C3CC3)c(C(=O)N[C@H]3CCOc4ccccc43)cnc2c1-c1cccc(OC(F)(F)F)c1` [Example 462] displayed an EC50 of less than 0.1 µg/mL.
For the compound `CC(C)c1c(C(=O)N[C@H]2CCc3ccccc32)cnc2c(-c3cccc(OC(F)(F)F)c3)c(C(F)F)nn12` [Example 431], the EC50 was less than 10 µg/mL.
On to `Cc1nn2c(C3CC3)c(C(=O)N[C@H]3CCOc4ccccc43)cnc2c1-c1cc(F)cc(F)c1` [Example 537], for which the EC50 was less than 0.1 µg/mL.
On the same count and under the same terms, the figure for `Cc1nn2c(C(C)C)c(C(=O)N[C@H]3CCCc4ccccc43)cnc2c1-c1ccccc1` [Example 175] is less than 10 µg/mL; for `Cc1nn2c(C(C)C)c(C(=O)N[C@H]3CCOc4ccccc43)cnc2c1-c1cccc2c1OCO2` [Example 266] it is less than 1 µg/mL; for `Cc1nn2c(C(C)C)c(C(=O)N[C@H]3CCc4ccccc43)cnc2c1-c1ccccc1` [Example 174] it is less than 0.1 µg/mL.
`Cc1nn2c(C(C)C)c(C(=O)N[C@H]3CCOc4ccccc43)cnc2c1-c1cccc(OC(F)(F)F)c1` [Example 394] had an EC50 of less than 0.1 µg/mL.
`CCN(C)c1cccc(-c2c(C)nn3c(C(C)C)c(C(=O)N[C@H]4CCc5ccccc54)cnc23)c1` [Example 373] gave a concentration giving a half-maximal response (EC50) of less than 1 µg/mL.
Take `Cc1ccccc1-c1c(C)nn2c(N3CCOCC3)c(C(=O)N[C@H]3CCOc4ccccc43)cnc12` [Example 536]: the EC50 was less than 0.1 µg/mL.
In turn, `Cc1nn2c(C(C)C)c(C(=O)N[C@H]3CCc4ccccc43)cnc2c1-c1ccnc(Cl)c1` [Example 313] had a concentration giving a half-maximal response (EC50) of less than 10 µg/mL.
On to `Cc1nn2c(C3CC3)c(C(=O)N[C@H]3CCOc4ccccc43)cnc2c1-c1cccc(C(F)(F)F)c1` [Example 449], for which the EC50 was less than 0.1 µg/mL.
Regarding `Cc1nn2c(Cc3ccc(F)cc3)c(C(=O)N[C@H]3CCOc4ccccc43)cnc2c1-c1c(F)cccc1Cl` [Example 228], the EC50 was less than 1 µg/mL.
`CC(C)c1c(C(=O)N[C@H]2CCCc3ccccc32)cnc2c(-c3ccccc3Cl)c(Cl)nn12` [Example 78]: the EC50 is less than 0.1 µg/mL.
In the case of `Cc1nn2c(C(C)C)c(C(=O)N[C@H]3CCCc4ccccc43)cnc2c1-c1cccc(OC(F)(F)F)c1` [Example 345], the EC50 is less than 1 µg/mL.
Same read-out and setting: the value for `CC(C)c1c(C(=O)N[C@H]2CCOc3ccccc32)cnc2c(-c3cc(Cl)cc(C(F)(F)F)c3)c(C(F)(F)F)nn12` [Example 143] was less than 10 µg/mL; that for `Cc1nn2c(C3CC3)c(C(=O)N[C@H]3CCc4ccccc43)cnc2c1-c1cccc(C(F)(F)F)c1` [Example 304] was less than 1 µg/mL.
For `Cc1nn2c(C(C)C)c(C(=O)N[C@H]3CCCc4ccccc43)cnc2c1-c1cc(F)ccc1F` [Example 115], the EC50 was less than 0.1 µg/mL.
The same measure, in the same setting: the value for `Cc1nn2c(C(C)C)c(C(=O)N[C@H]3CCc4ccccc43)cnc2c1-c1cccc(COC(C)C)c1` [Example 369] was less than 10 µg/mL.
The same measure, in the same setting: the value for `COCc1cccc(-c2c(C(F)F)nn3c(C(C)C)c(C(=O)N[C@H]4CCc5ccccc54)cnc23)c1` [Example 430] was less than 1 µg/mL; that for `COc1cccc(-c2c(C)nn3c(C(C)C)c(C(=O)N[C@H]4CCCc5ccccc54)cnc23)c1` [Example 346] was less than 0.1 µg/mL; that for `Cc1nn2c(C(C)C)c(C(=O)N[C@H]3CCc4ccccc43)cnc2c1-c1cccc(Br)c1` [Example 205] was less than 0.1 µg/mL.

Test system in the next series: not listed separately
The experiment in a line: log P by HPLC on reversed phase columns (Method L0; [a] acidic, [b] neutral range).
Settings: not given
A word on the chromatographic logP: it is a lipophilicity value derived from retention on a column. On to `Cc1nn2c(C3CC3)c(C(=O)N[C@H]3CCOc4ccccc43)cnc2c1-c1cccc(OC(F)(F)F)c1` [Example 462], for which the chromatographic logP was determined as 4.47.
`CC(C)c1c(C(=O)N[C@H]2CCc3ccccc32)cnc2c(-c3cccc(OC(F)(F)F)c3)c(C(F)F)nn12` [Example 431] came in with a chromatographic logP of 5.18.
In the case of `Cc1nn2c(C3CC3)c(C(=O)N[C@H]3CCOc4ccccc43)cnc2c1-c1cc(F)cc(F)c1` [Example 537], the chromatographic logP came to 3.99.
With `Cc1nn2c(C(C)C)c(C(=O)N[C@H]3CCCc4ccccc43)cnc2c1-c1ccccc1` [Example 175], the chromatographic logP was determined as 4.94.
The compound `Cc1nn2c(C(C)C)c(C(=O)N[C@H]3CCOc4ccccc43)cnc2c1-c1cccc2c1OCO2` [Example 266] had a chromatographic logP of 4.02.
Compound `Cc1nn2c(C(C)C)c(C(=O)N[C@H]3CCc4ccccc43)cnc2c1-c1ccccc1` [Example 174] displayed a chromatographic logP of 4.59.
The compound `Cc1nn2c(C(C)C)c(C(=O)N[C@H]3CCOc4ccccc43)cnc2c1-c1cccc(OC(F)(F)F)c1` [Example 394] returned a chromatographic logP of 5.19.
In turn, `CCN(C)c1cccc(-c2c(C)nn3c(C(C)C)c(C(=O)N[C@H]4CCc5ccccc54)cnc23)c1` [Example 373] yielded a chromatographic logP of 3.48.
Same read-out and setting: the value for `Cc1ccccc1-c1c(C)nn2c(N3CCOCC3)c(C(=O)N[C@H]3CCOc4ccccc43)cnc12` [Example 536] was 4.18.
Compound `Cc1nn2c(C(C)C)c(C(=O)N[C@H]3CCc4ccccc43)cnc2c1-c1ccnc(Cl)c1` [Example 313] had a chromatographic logP of 4.23.
As for `Cc1nn2c(C3CC3)c(C(=O)N[C@H]3CCOc4ccccc43)cnc2c1-c1cccc(C(F)(F)F)c1` [Example 449], the chromatographic logP was 4.31.
As for `Cc1nn2c(Cc3ccc(F)cc3)c(C(=O)N[C@H]3CCOc4ccccc43)cnc2c1-c1c(F)cccc1Cl` [Example 228], the chromatographic logP turned out to be 4.72.
For the compound `CC(C)c1c(C(=O)N[C@H]2CCCc3ccccc32)cnc2c(-c3ccccc3Cl)c(Cl)nn12` [Example 78], the chromatographic logP turned out to be 5.07.
`Cc1nn2c(C(C)C)c(C(=O)N[C@H]3CCCc4ccccc43)cnc2c1-c1cccc(OC(F)(F)F)c1` [Example 345] came in with a chromatographic logP of 5.82.
With `CC(C)c1c(C(=O)N[C@H]2CCOc3ccccc32)cnc2c(-c3cc(Cl)cc(C(F)(F)F)c3)c(C(F)(F)F)nn12` [Example 143], the chromatographic logP is 5.78.
`Cc1nn2c(C3CC3)c(C(=O)N[C@H]3CCc4ccccc43)cnc2c1-c1cccc(C(F)(F)F)c1` [Example 304] gave a chromatographic logP of 4.55.
`Cc1nn2c(C(C)C)c(C(=O)N[C@H]3CCCc4ccccc43)cnc2c1-c1cc(F)ccc1F` [Example 115] yielded a chromatographic logP of 4.89.
`Cc1nn2c(C(C)C)c(C(=O)N[C@H]3CCc4ccccc43)cnc2c1-c1cccc(COC(C)C)c1` [Example 369] yielded a chromatographic logP of 5.25.
In turn, `COCc1cccc(-c2c(C(F)F)nn3c(C(C)C)c(C(=O)N[C@H]4CCc5ccccc54)cnc23)c1` [Example 430] came in with a chromatographic logP of 4.36.
In turn, `COc1cccc(-c2c(C)nn3c(C(C)C)c(C(=O)N[C@H]4CCCc5ccccc54)cnc23)c1` [Example 346] displayed a chromatographic logP of 4.82.
For `Cc1nn2c(C(C)C)c(C(=O)N[C@H]3CCc4ccccc43)cnc2c1-c1cccc(Br)c1` [Example 205], the chromatographic logP turned out to be 5.31.
